According to patent publication US20120232062A1, “AZAINDAZOLES TO TREAT FLAVIVIRIDAE VIRUS INFECTION” (EIGER BIOPHARMACEUTICALS, INC., priority 2009, published 2012):

Assays:
[1] = Liver microsome stability, rat; type: in vitro ADME, Sprague Dawley rat
Excerpt: Metabolic stability assays are designed to measure the stability of a test compound in a variety of assay matrices from human and animal species. From a metabolism perspective, a drug would be relatively stable, have a small first-pass effect, and maintain an effective concentration in blood for a reasonable period of time. A microsomal preparation from the liver contains all CYP isozymes and other membrane-bound drug metabolizing enzymes which are responsible for the metabolism for the majority of drugs in humans. Metabolic stability in liver microsomes can determine half-life (T1/2) and intrinsic clearance (Clint). The determination of Clint may be useful to determine whether metabolism is the major elimination pathway when it is compared to total body clearance in vivo. For high metabolic stability in liver microsomes: […] Human, Sprague Dawley rat, and CD-1 mouse liver microsome samples were purchased from BD Gentest. An in vitro metabolic stability assay suitable for use in predicting first pass metabolism of the compounds useful in the methods of the invention is described in this example. […] 6 mM NADPH in 0.1 M K-phosphate buffer is prepared by dissolving 25.1 mg of NADPH tetrasodium salt in 5 mL of K-phosphate buffer. […] The plate is pre-incubated at 37° C. for 10 minutes. 15 μL of NADPH stock solution (6 mM) is added to the wells designated for Time 60 and timed. At 30 min, 15 min, and 5 min, 15 μL of NADPH stock solution (6 mM) is added to the wells. At the end of incubation, 135 μL of ACN containing IS is added to all the wells (60 min, 30 min, 15 min, 5 min and 0 min). Then 15 μL of NADPH stock solution (6 mM) is added to the wells designated as Time 0.

[2] = Caco-2 permeability testing; type: in vitro ADME, human; settings: human; for efflux ratio at 90 min, 10 µM: pH 7.4, Caco-2, Papp (B-A)/Papp (A-B), read-out: Efflux/Permeability ratio (desired <3); for Papp A→B at 90 min, 10 µM: Caco-2, pH 7.4, Caco-2, A-B, read-out: Permeability (second figure of Efflux/permeability), Papp (A-B); for Papp B→A at 90 min, 10 µM: Caco-2, pH 7.4, Caco-2, B-A, read-out: Efflux (first figure of Efflux/permeability), Papp (B-A)
Excerpt: Intestinal epithelium permeability is a critical characteristic that determines the rate and extent of human absorption and affects bioavailability of a drug candidate. Poor intestinal permeability leads to limited absorption. Generally, higher absorption is preferred. The Caco-2 cell line is a human colon adeno-carcinoma cell line that resembles the epithelial lining of the human small intestine. Several transport proteins that are expressed in human intestinal epithelium are also expressed in the Caco-2 cell model. Some transporter proteins are efflux systems which mediate the secretion of compounds from inside the cell back to the apical lumen (representative of the intestinal lumen), limiting overall absorption. In a permeability assay, the apparent permeability coefficient is measured between the apical to basolateral sides of a cell monolayer, Papp (A-B), and the basolateral to the apical side, Papp (B-A). Papp (A-B)<2×10^−6 cm/s is predictive of low permeability to the basolateral side, 2×10^−6 cm/s<Papp (A-B)<20×10^−6 cm/s is predictive of medium permeability, and Papp (A-B)>20×10^−6 cm/s is predictive of high permeability. In the B-A permeability assay, Papp (B-A) is measured and compounds evaluated for efflux potential. Together, these assay results are reported as a ratio of Papp (B-A) to Papp (A-B). Papp (B-A)/Papp (A-B)>3 are likely to be transported by one of the efflux systems, and have poor absorption. Papp (B-A)/Papp (A-B)<3 are likely to show reasonable intestinal absorption. An in vitro drug absorption assay suitable for use in predicting intestinal absorption of the compounds useful in the methods of the invention is described in this example. The embodiments of this assay described in this example were developed by Shanghai ChemPartner Co., Ltd., a corporation of China with its principal office located at 720 Cailun Road, Building No. 3, Shanghai 201203, China.
Caco-2 (ATCC, catalog No. HTB-37™) cells are cultured in growth medium (MEM+10% FBS+1% NEAA). The growth medium is prepared by adding 50 mL FBS and 5 mL NEAA to 445 mL of MEM or by adjusting the final volume according to actual needs. Trypsin-EDTA (Invitrogen, Cat #25200-072) is also used.
Hanks Balanced Salt Solution (HBSS, Invitrogen, Cat #14025-092) with 25 mM HEPES, pH 7.4, HBSS buffer with 0.2% DMSO (50 μL DMSO into 25 ml HBSS buffer), and HBSS buffer with 0.4% DMSO (100 μL DMSO into 25 ml HBSS buffer) are used.
10 mM stock solutions of a compound is prepared in DMSO and Lucifer Yellow in assay buffer using the formula (Actual Weight/Molecular Weight)/mL solvent=10 mM. Erythromycin, Metoprolol, and Atenolol are used as reference compounds. Donor solutions (10 μM for compounds and 5 μM for Lucifer Yellow) are prepared. For A-B, 4 μL of 10 mM compound stock solution and 2 μL of 10 mM Lucifer Yellow stock solution are loaded into 4 mL of HBSS buffer, and centrifuged (5 min, 4000 rpm) to precipitate undissolved particles. Supernatants are collected for compound dosing. For B-A, 4 μL (compounds) of 10 mM compound stock solution is added to 4 mL HBSS buffer with 0.2% DMSO, and centrifuged (5 min, 4000 rpm) to precipitate undissolved particles. Supernatants are collected for compound dosing.
Receiver solutions are prepared. For A-B, the solution is HBSS buffer with 0.4% DMSO. For B-A, 2 μL of 10 mM Lucifer Yellow stock solution is added to 4 mL of HBSS buffer with 0.2% DMSO. Compound solutions are prepared for standard curve (3 μM/1 μM/0.2 μM/0.04 μM/0.01 μM/0.005 μM):
1× solution: 3 μL of 20× solution (0.1-60 μM)+57 μL 0.4% DMSO HBSS+60 μL acetonitrile (ACN) with internal standard (IS, 200 ng/mL Osalmid). The assay was performed as described below
Stock cultures are maintained in MEM+10% FBS+1% NEAA, grown in 75 cm^2 tissue culture treated flasks and split (passed) 2 times weekly to maintain desired confluence. For maintenance passage, trypsinized cells are routinely distributed into new flasks at a standard passage ratio of 1:4. […]

Structure (SMILES) | rat liver microsome (RLM), % parent remaining ([1]; after 15 min) [% parent remaining] | rat liver microsome (RLM), % parent remaining ([1]; after 30 min) [% parent remaining] | rat liver microsome (RLM), % parent remaining ([1]; after 60 min) [% parent remaining] | efflux ratio at 90 min, 10 µM [2] | Papp A→B at 90 min, 10 µM [2] [×10⁻⁶ cm/s] | Papp B→A at 90 min, 10 µM [2] [×10⁻⁶ cm/s]
Cn1nc(C(=O)NC2CCN(CCN3CCCCC3)CC2)c2ccc(N3CCCCCC3)nc21 [EBP1047] | 44 | 18 | 10 | – | – | –
CCN1CCC(NC(=O)c2nn(C)c3nc(N4CCCCCC4)ccc23)CC1 [EBP1595] | 67 | 46 | 8 | 0.9 | – | –
Cn1nc(C(=O)NC2CCN(CCN3CCCC3)CC2)c2ccc(N3CCCCCC3)nc21 [EBP1597] | 57 | 24 | 15 | 0.8 | – | –
CC(C)N1CCC(NC(=O)c2nn(C)c3nc(N4CCCCCC4)ccc23)CC1 [EBP1604] | 58 | 41 | 14 | 0.8 | 12 | 9
Cn1nc(C(=O)NC2CCNCC2)c2ccc(N3CCCCCC3)nc21.O=C(O)C(F)(F)F.O=C(O)C(F)(F)F [compound 697] | 69 | 42 | 13 | – | 5.5 | 48
CCC(CC)Oc1ccc2c(C(=O)NC3CCNCC3)n[nH]c2n1 [compound 726] | 83 | 69 | 53 | – | 3.5 | 41
Clc1ccc(Cn2nc(COCCCN3CCCCC3)c3ccc(N4CCCCCC4)nc32)cc1 [compound 749] | – | – | – | – | 0.44 | 0.52
CCC(CC)Oc1ccc2c(COCC3CCCNC3)nn(Cc3ccc(Cl)cc3)c2n1.O=C(O)C(F)(F)F (centres unmarked) [compound 755] | – | – | – | – | 0.4 | 0.2
O=C(NC1CCNCC1)c1nn(C(=O)C2CCCCC2)c2nc(N3CCCCCC3)ccc12.O=C(O)C(F)(F)F.O=C(O)C(F)(F)F.O=C(O)C(F)(F)F [compound 989] | – | – | – | – | 5 | 3
Cn1nc(C(=O)NC2CCN(CCN3CCCCC3)CC2)c2ccc(N3CCCCCC3)nc21 [compound 1047] | 44 | 18 | 10 | – | 10.5 | 7.6
Cn1nc(C(=O)NC2CCN(CC3CCCCC3)CC2)c2ccc(N3CCCCCCC3)nc21 [compound 1062] | – | – | – | – | 1.7 | 0.6
Cn1nc(C(=O)NC2CCN(CC(F)F)CC2)c2ccc(N3CCCCCC3)nc21 [compound 1110] | 10 | 0.5 | 0.5 | – | 13.8 | 10.1
Cn1nc(CCCN2CCCC2)c2ccc(N3CCCCCCC3)nc21 [compound 1171] | 1.2 | 0.5 | 0.3 | – | 17 | 11
Cn1nc(CCCN2CCCCC2CO)c2ccc(N3CCCCCCC3)nc21 (centres unmarked) [compound 1456] | 3.9 | 0.4 | 0.2 | – | 15 | 15
CCN1CCC(NC(=O)c2nn(C)c3nc(N4CCCCCC4)ccc23)CC1 [compound 1595] | 67 | 46 | 8 | – | 15.3 | 14.4
Cn1nc(C(=O)NC2CCN(CCN3CCCC3)CC2)c2ccc(N3CCCCCC3)nc21 [compound 1597] | 57 | 25 | 14 | – | 9.2 | 6.5
